Measurements: the supplement of paper PMC10307832

Legend:
Assay in all cases: relative viability (nuclei count vs DMSO), 5 days (fraction); higher = more cells survive
Elesclomol + Pemetrexed = compound: CN(NC(=O)CC(=O)NN(C)C(=S)c1ccccc1)C(=S)c1ccccc1 [Elesclomol] + Nc1nc2[nH]cc(CCc3ccc(C(=O)N[C@@H](CCC(=O)O)C(=O)O)cc3)c2c(=O)[nH]1 [Pemetrexed] (partner 0.2 µM)
How it was run: (§1)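 Medians of duplicate plates are given as relative viability. That measure is the nuclei count in treated wells divided by the count in vehicle wells. Counts were taken on 4× images of lung cancer cell lines in 1536-well plates, 5 days after pin-tool dosing the day after seeding with one drug alone or a fixed anchor-drug dose plus five library-drug doses (not always all listed) in √10 steps.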

Elesclomol + Tozasertib = compound: CN(NC(=O)CC(=O)NN(C)C(=S)c1ccccc1)C(=S)c1ccccc1 [Elesclomol] + Cc1cc(Nc2cc(N3CCN(C)CC3)nc(Sc3ccc(NC(=O)C4CC4)cc3)n2)n[nH]1 [Tozasertib] (partner 0.1 µM)
How it was run: as §1

Elesclomol + OSI-027 = compound: CN(NC(=O)CC(=O)NN(C)C(=S)c1ccccc1)C(=S)c1ccccc1 [Elesclomol] + COc1cccc2cc(-c3nc([C@H]4CC[C@H](C(=O)O)CC4)n4ncnc(N)c34)[nH]c12 [OSI-027] (partner 0.5 µM)
How it was run: as §1

Elesclomol + Bortezomib = compound: CN(NC(=O)CC(=O)NN(C)C(=S)c1ccccc1)C(=S)c1ccccc1 [Elesclomol] + CC(C)C[C@H](NC(=O)[C@H](Cc1ccccc1)NC(=O)c1cnccn1)B(O)O [Bortezomib] (partner 0.002 µM)
How it was run: as §1

Elesclomol + Palbociclib = compound: CN(NC(=O)CC(=O)NN(C)C(=S)c1ccccc1)C(=S)c1ccccc1 [Elesclomol] + CC(=O)c1c(C)c2cnc(Nc3ccc(N4CCNCC4)cn3)nc2n(C2CCCC2)c1=O [Palbociclib] (partner 0.5 µM)
How it was run: as §1

Cell Line | relative viability (Elesclomol + Pemetrexed; first compound 0.003162 µM) | relative viability (Elesclomol + Pemetrexed; first compound 0.01 µM) | relative viability (Elesclomol + Pemetrexed; first compound 0.03162 µM) | relative viability (Elesclomol + Pemetrexed; first compound 0.1 µM) | relative viability (Elesclomol + Tozasertib; first compound 0.003162 µM) | relative viability (Elesclomol + Tozasertib; first compound 0.01 µM) | relative viability (Elesclomol + Tozasertib; first compound 0.03162 µM) | relative viability (Elesclomol + Tozasertib; first compound 0.1 µM) | relative viability (Elesclomol + OSI-027; first compound 0.003162 µM) | relative viability (Elesclomol + OSI-027; first compound 0.01 µM) | relative viability (Elesclomol + OSI-027; first compound 0.03162 µM) | relative viability (Elesclomol + OSI-027; first compound 0.1 µM) | relative viability (Elesclomol + Bortezomib; first compound 0.003162 µM) | relative viability (Elesclomol + Bortezomib; first compound 0.01 µM) | relative viability (Elesclomol + Bortezomib; first compound 0.03162 µM) | relative viability (Elesclomol + Bortezomib; first compound 0.1 µM) | relative viability (Elesclomol + Palbociclib; first compound 0.003162 µM) | relative viability (Elesclomol + Palbociclib; first compound 0.01 µM) | relative viability (Elesclomol + Palbociclib; first compound 0.03162 µM) | relative viability (Elesclomol + Palbociclib; first compound 0.1 µM)
NCI-H1755 | 0.383 | 0.359 | 0.426 | 0.348 | 0.625 | 0.47 | 0.421 | 0.288 | 0.756 | 0.457 | 0.66 | 0.419 | 1.06 | 0.831 | 0.951 | 0.304 | 0.483 | 0.429 | 0.462 | 0.393
NCI-H2087 | 0.588 | 0.685 | 0.609 | 0.108 | 0.18 | 0.187 | 0.158 | 0.0781 | 0.422 | 0.283 | 0.357 | 0.225 | 0.896 | 0.49 | 0.502 | 0.495 | 0.222 | 0.188 | 0.176 | 0.0806
NCI-H2023 | 0.172 | 0.128 | 0.0613 | 0.0421 | 0.282 | 0.192 | 0.0576 | 0.0475 | 0.351 | 0.128 | 0.0471 | 0.0389 | 0.744 | 0.374 | 0.146 | 0.0637 | 0.355 | 0.124 | 0.0385 | 0.0417
CAL-12T | 1.03 | 0.576 | 0.119 | 0.0739 | 0.268 | 0.17 | 0.0901 | 0.0485 | 0.504 | 0.277 | 0.139 | 0.0937 | 1.01 | 0.555 | 0.257 | 0.119 | 0.435 | 0.118 | 0.0519 | 0.0654
NCI-H2085 | 0.911 | 0.902 | 0.64 | 0.168 | 0.76 | 0.703 | 0.529 | 0.457 | 0.919 | 0.727 | 0.476 | 0.268 | 0.938 | 0.662 | 0.577 | 0.349 | 0.459 | 0.423 | 0.333 | 0.255
NCI-H650 | 0.884 | 0.728 | 0.449 | 0.191 | 0.737 | 0.351 | 0.222 | 0.192 | 0.555 | 0.382 | 0.229 | 0.254 | 1.02 | 0.309 | 0.199 | 0.198 | 0.328 | 0.292 | 0.174 | 0.133
LCLC-97TM1 | 0.159 | 0.133 | 0.164 | 0.0782 | 0.196 | 0.148 | 0.178 | 0.153 | 0.549 | 0.164 | 0.49 | 0.15 | 0.493 | 0.0794 | 0.0851 | 0.0274 | 0.189 | 0.193 | 0.277 | 0.129
NCI-H2126 | 0.766 | 0.59 | 0.686 | 0.542 | 0.792 | 0.751 | 0.359 | 0.337 | 0.826 | 0.637 | 0.455 | 0.246 | 1.11 | 1.08 | 1.11 | 1.17 | 0.341 | 0.357 | 0.352 | 0.309
201T | 0.361 | 0.369 | 0.309 | 0.394 | 0.984 | 0.88 | 0.911 | 0.536 | 0.683 | 0.587 | 0.386 | 0.369 | 1.09 | 1.07 | 1.08 | 1.05 | 0.349 | 0.358 | 0.354 | 0.372
NCI-H1915 | 0.499 | 0.456 | 0.481 | 0.286 | 0.412 | – | 0.397 | 0.258 | 0.616 | – | 0.587 | 0.357 | 0.857 | – | 1.01 | 0.526 | 0.517 | 0.381 | 0.489 | 0.206
BEN | 0.888 | 0.68 | 0.408 | 0.319 | 0.592 | 0.399 | 0.45 | 0.402 | 0.301 | 0.256 | 0.27 | 0.252 | 0.698 | 0.57 | 0.265 | 0.25 | 0.46 | 0.388 | 0.39 | 0.304
NCI-H2347 | 0.401 | 0.372 | 0.411 | 0.441 | 0.683 | 0.424 | 0.264 | 0.248 | 0.389 | 0.389 | 0.173 | 0.211 | 0.929 | 0.765 | 0.891 | 0.544 | 0.401 | 0.441 | 0.328 | 0.321
H3255 | 0.627 | 0.531 | 0.489 | 0.474 | 0.569 | 0.525 | 0.405 | 0.364 | 0.538 | 0.537 | 0.489 | 0.421 | 0.792 | 0.465 | 0.418 | 0.289 | 0.331 | 0.309 | 0.285 | 0.254
NCI-H441 | 0.239 | 0.234 | 0.18 | 0.0576 | 0.546 | 0.794 | 0.332 | 0.1 | 0.563 | 0.37 | 0.327 | 0.103 | 0.55 | 0.454 | 0.25 | 0.0495 | 0.253 | 0.22 | 0.126 | 0.081
NCI-H2228 | 0.307 | 0.308 | 0.143 | 0.0377 | 0.242 | 0.257 | 0.166 | 0.051 | 0.568 | 0.27 | 0.188 | 0.0467 | 0.926 | 0.893 | 0.422 | 0.0364 | 0.676 | 0.513 | 0.225 | 0.0449
NCI-H1975 | 0.298 | 0.292 | 0.17 | 0.133 | 0.733 | 0.517 | 0.118 | 0.0791 | 0.863 | 0.455 | 0.392 | 0.0658 | 0.351 | 0.316 | 0.193 | 0.109 | 0.579 | 0.263 | 0.205 | 0.0984
